{
  "source": "patent US20100130549A1",
  "about": "“PSYCHOTROPIC COMPOUNDS, COMPOSITIONS AND METHODS OF USE” (priority 2007, published 2010)",
  "key": {"SHSY5Y cell-line": {"system": "SHSY5Y cell-line", "assay": "Cell viability, neutral red method"}, "Adrenergic α1B": {"target": "T1, Adrenergic α1B (Rattus norvegicus, UniProt P15823)", "T1 sequence (P15823 1-515)": "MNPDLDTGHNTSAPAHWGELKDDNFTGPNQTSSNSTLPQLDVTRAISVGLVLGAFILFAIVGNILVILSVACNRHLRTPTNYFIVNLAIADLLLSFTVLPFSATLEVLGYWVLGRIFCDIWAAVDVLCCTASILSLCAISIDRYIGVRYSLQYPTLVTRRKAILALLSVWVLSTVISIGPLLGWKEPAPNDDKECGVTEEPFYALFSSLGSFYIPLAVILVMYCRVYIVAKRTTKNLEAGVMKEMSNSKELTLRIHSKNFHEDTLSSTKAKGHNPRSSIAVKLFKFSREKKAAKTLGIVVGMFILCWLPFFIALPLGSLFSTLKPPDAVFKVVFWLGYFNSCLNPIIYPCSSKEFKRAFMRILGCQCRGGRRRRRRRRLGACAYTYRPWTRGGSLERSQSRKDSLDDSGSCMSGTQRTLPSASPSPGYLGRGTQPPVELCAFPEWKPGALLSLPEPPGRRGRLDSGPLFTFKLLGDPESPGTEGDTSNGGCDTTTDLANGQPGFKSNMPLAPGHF", "assay": "Radioligand binding assay, Adrenergic α1B", "from_the_text": "(§1) . Table 1 provides data produced via a receptor binding assay and IC50 and Ki determination. […] In addition, the compound of formula (Ia) has a potent DAT inhibition, which is indicative of dopaminergic uptake inhibition and increased DA activity. In addition to the effect on SERT and DAT, the compound of formula (Ia) inhibited the transporter of Norepinephrine (NET), and several neurotransmitter's receptors like alpha2A and alpha2C receptors, alpha 1A and alphal C, 5HT2A and 5HT2C, signal histamine2 and dopamine D1. This specific profile is in line with the data on antidepressant, anxiolytic and moderate neuro-stimulation activity observed in the animal model studies.\n(§2) With regard to the data provided in Table 1, the biochemical assay results are presented as the percent inhibition of specific binding or activity throughout the report. For primary assays, only the lowest concentration with a significant response judged by the assays’ criteria, is shown in this summary. […] Unless otherwise requested, primary screening in duplicate with quantitative data (e.g., IC50±SEM, Ki±SEM and nH) are shown."}, "Dopamine D1": {"target": "Dopamine D1 (Homo sapiens, UniProt P21728)", "sequence (P21728 whole entry)": "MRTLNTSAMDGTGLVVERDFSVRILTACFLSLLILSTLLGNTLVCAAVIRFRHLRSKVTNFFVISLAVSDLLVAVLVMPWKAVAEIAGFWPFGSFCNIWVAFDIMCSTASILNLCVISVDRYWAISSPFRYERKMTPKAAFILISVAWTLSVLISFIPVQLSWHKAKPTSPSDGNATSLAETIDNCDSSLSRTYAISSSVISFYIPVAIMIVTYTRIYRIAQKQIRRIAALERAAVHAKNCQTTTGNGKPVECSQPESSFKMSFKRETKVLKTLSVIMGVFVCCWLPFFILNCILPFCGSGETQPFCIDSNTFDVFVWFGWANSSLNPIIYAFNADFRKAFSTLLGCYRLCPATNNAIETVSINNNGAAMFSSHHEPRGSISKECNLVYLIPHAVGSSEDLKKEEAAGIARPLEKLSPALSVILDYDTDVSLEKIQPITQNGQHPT", "assay": "Radioligand binding assay, Dopamine D1", "from_the_text": "as §1, §2"}, "Sigma σ1": {"target": "Sigma σ1 (Homo sapiens, UniProt Q99720)", "sequence (Q99720 whole entry)": "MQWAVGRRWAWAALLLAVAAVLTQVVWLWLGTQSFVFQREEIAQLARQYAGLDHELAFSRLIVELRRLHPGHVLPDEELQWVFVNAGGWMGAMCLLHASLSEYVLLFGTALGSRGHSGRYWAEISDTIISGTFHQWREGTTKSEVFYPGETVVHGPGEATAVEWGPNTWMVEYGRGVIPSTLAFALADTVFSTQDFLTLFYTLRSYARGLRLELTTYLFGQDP", "assay": "Radioligand binding assay, Sigma σ1", "from_the_text": "as §1, §2"}, "BALB/c mice": {"system": "BALB/c mice", "assay": "Open field test"}, "[1]": {"target": "Transporter, Serotonin (5-Hydroxytryptamine) (SERT) (Homo sapiens, UniProt P31645)", "sequence (P31645 whole entry)": "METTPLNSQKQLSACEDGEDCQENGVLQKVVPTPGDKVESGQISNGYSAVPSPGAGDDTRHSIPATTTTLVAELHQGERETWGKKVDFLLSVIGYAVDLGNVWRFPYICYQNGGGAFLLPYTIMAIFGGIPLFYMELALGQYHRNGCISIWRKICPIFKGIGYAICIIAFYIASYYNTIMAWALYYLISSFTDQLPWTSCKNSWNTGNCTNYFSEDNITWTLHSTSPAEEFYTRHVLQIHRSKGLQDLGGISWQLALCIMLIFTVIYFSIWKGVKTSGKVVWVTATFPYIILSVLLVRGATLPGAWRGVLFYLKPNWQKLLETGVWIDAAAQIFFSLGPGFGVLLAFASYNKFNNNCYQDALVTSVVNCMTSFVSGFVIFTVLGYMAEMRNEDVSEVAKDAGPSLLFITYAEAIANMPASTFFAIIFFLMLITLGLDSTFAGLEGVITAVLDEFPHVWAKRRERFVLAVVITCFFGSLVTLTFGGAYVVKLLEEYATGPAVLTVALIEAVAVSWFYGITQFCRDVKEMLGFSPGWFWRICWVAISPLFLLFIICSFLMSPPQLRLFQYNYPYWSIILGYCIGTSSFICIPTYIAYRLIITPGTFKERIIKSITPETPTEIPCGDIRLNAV", "assay": "Radioligand binding assay, Serotonin transporter", "from_the_text": "as §2"}, "[2]": {"target": "Transporter, Norepinephrine (NET) (Homo sapiens, UniProt P23975)", "sequence (P23975 whole entry)": "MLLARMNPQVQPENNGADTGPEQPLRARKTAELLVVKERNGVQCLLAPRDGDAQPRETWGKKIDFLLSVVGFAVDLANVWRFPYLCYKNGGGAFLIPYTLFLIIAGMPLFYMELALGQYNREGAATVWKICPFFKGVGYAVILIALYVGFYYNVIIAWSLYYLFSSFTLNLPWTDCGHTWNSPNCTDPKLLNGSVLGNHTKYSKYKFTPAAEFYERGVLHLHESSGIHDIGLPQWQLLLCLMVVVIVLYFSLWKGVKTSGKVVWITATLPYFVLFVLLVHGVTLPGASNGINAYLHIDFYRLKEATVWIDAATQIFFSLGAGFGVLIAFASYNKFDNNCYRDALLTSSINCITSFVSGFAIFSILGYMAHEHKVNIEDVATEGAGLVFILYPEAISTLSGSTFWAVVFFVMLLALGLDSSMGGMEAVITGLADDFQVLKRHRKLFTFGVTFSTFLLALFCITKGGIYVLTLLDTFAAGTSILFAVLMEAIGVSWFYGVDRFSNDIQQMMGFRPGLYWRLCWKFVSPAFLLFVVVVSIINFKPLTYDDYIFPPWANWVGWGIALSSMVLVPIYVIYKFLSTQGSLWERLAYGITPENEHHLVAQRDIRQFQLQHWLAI", "assay": "Radioligand binding assay, Norepinephrine transporter", "from_the_text": "as §1, §2"}, "ICR male mice": {"system": "ICR male mice", "assay": "Subchronic ip administration (toxicity)", "type": "in vivo", "conditions": "mouse, in vivo, ip, 30 mg/kg", "from_the_text": "[…]. Except for this local irritation no other toxicity was noted.\n[…]. […] Except of these local irritations no other toxicity was noted."}, "Adrenergic α2A": {"target": "T2, Adrenergic α2A (Homo sapiens, UniProt P08913)", "T2 construct": "203620", "T2 sequence (P08913 1-465)": "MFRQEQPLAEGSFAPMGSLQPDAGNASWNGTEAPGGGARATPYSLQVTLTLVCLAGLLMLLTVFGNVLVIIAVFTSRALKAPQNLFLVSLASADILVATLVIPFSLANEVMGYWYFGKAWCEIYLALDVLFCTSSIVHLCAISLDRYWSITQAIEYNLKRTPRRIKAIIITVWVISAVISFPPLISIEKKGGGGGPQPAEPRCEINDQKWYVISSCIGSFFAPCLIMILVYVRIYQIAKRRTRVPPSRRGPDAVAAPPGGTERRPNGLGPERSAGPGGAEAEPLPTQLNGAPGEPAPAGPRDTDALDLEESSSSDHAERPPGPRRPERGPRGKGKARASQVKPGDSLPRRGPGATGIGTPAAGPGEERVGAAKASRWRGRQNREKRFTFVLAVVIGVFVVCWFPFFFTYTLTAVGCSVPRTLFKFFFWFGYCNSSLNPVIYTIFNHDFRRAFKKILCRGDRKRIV", "assay": "Radioligand binding assay, Adrenergic α2A", "from_the_text": "as §1, §2"}, "[3]": {"target": "T3, Serotonin (5-Hydroxytryptamine) 5-HT2C (Homo sapiens, UniProt P28335)", "T3 sequence (P28335 33-458)": "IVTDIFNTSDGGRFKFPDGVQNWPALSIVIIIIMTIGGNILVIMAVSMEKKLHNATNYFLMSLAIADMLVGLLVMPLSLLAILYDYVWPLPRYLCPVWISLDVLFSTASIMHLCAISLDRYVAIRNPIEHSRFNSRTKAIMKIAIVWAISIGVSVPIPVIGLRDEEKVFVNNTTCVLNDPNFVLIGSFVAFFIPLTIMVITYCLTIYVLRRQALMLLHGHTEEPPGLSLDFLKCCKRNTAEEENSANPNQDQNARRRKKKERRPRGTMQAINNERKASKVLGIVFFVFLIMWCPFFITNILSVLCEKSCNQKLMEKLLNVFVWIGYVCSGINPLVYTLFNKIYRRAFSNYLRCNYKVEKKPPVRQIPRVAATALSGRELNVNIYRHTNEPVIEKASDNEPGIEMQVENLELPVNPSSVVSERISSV", "assay": "Radioligand binding assay, 5-HT2C", "from_the_text": "as §1, §2"}, "[4]": {"conditions": "10 mg/kg (equimolar) ip 1 hr prior"}, "[5]": {"conditions": "10 mg/kg (equimolar) ip 1 hr prior, p<0.001 vs controls"}},
  "note": "pIC50, pKi: −log10 of the molar value.",
  "data": [
    {"smiles": "CN[C@H]1CC[C@@H](c2ccc(Cl)c(Cl)c2)c2ccc(C#CCCCO)cc21", "note": "[compound Ia, (1S-cis)-4-(3,4-dichlorophenyl)-7-(5-hydroxy-1-pentyn-1-yl)-1,2,3,4-tetrahydro-N-methyl-1-naphthalenamine hydroiodide]", "values": [
      {"measurement": "increase in cell viability compared to control vehicle treated cells", "setting": "SHSY5Y cell-line; 1-5 μM, 24 and 48 hours incubation", "value": "13-25%"},
      {"measurement": "effect on cell viability over concentration range", "setting": "SHSY5Y cell-line; 1-50 μM, low concentrations neurotrophic, high concentrations apoptosis", "value": "biphasic effects"},
      {"measurement": "concentration of maximal neurotropic activity", "setting": "SHSY5Y cell-line; concentration range 1-50 μM", "value": 1, "unit": "µM"},
      {"measurement": "pIC50", "setting": "Adrenergic α1B", "value": 6.25},
      {"measurement": "nH", "setting": "Adrenergic α1B", "value": 1.08},
      {"measurement": "inhibition at 1 µM", "setting": "Adrenergic α1B; 1 μM", "value": 63, "unit": "%"},
      {"measurement": "pKi", "setting": "Adrenergic α1B; read-out: K1", "value": 6.51},
      {"measurement": "pIC50", "setting": "Dopamine D1", "value": 5.57},
      {"measurement": "nH", "setting": "Dopamine D1", "value": 1.25},
      {"measurement": "inhibition at 10 µM", "setting": "Dopamine D1; 10 μM", "value": 84, "unit": "%"},
      {"measurement": "pKi", "setting": "Dopamine D1; read-out: K1", "value": 5.87},
      {"measurement": "pIC50", "setting": "Sigma σ1", "value": 6.08},
      {"measurement": "nH", "setting": "Sigma σ1", "value": 0.627},
      {"measurement": "inhibition at 3 µM", "setting": "Sigma σ1; 3 μM", "value": 69, "unit": "%"},
      {"measurement": "pKi", "setting": "Sigma σ1; read-out: K1", "value": 6.45},
      {"measurement": "ratio (center/periphery)", "setting": "BALB/c mice; [4]", "value": "significantly increase"},
      {"measurement": "total time spent in the center (areas 2+3)", "setting": "BALB/c mice; [4]", "value": "significantly increase"},
      {"measurement": "frequency to the center", "setting": "BALB/c mice; 10 mg/kg (equimolar) ip 1 hr prior, controls 1.23", "value": 1.35},
      {"measurement": "distance moved", "setting": "BALB/c mice; [5]", "value": "significantly increase"},
      {"measurement": "velocity", "setting": "BALB/c mice; [5]", "value": "significantly increase"},
      {"measurement": "sedative effect accompanying the anxiolytic activity", "setting": "BALB/c mice; orally 90 min prior", "value": "not accompanied by a sedative effect"},
      {"measurement": "pIC50", "setting": "[1]", "value": "> 6.52"},
      {"measurement": "inhibition at 0.03 µM", "setting": "[1]; 0.03 μM", "value": 86, "unit": "%"},
      {"measurement": "pKi", "setting": "[1]; read-out: SERT final Ki", "value": 8.96},
      {"measurement": "pIC50", "setting": "[2]", "value": 6.21},
      {"measurement": "nH", "setting": "[2]", "value": 0.977},
      {"measurement": "inhibition at 1 µM", "setting": "[2]; 1 μM", "value": 62, "unit": "%"},
      {"measurement": "pKi", "setting": "[2]; read-out: K1", "value": 6.21},
      {"measurement": "histopathology of heart, spleen, liver and kidney", "setting": "ICR male mice", "value": "minimal to mild irritation"},
      {"measurement": "pIC50", "setting": "Adrenergic α2A", "value": 6.56},
      {"measurement": "nH", "setting": "Adrenergic α2A", "value": 0.930},
      {"measurement": "inhibition at 1 µM", "setting": "Adrenergic α2A; 1 μM", "value": 82, "unit": "%"},
      {"measurement": "pKi", "setting": "Adrenergic α2A; read-out: K1", "value": 6.99},
      {"measurement": "pIC50", "setting": "[3]", "value": 5.04},
      {"measurement": "nH", "setting": "[3]", "value": 2.15},
      {"measurement": "inhibition at 10 µM", "setting": "[3]; read-out: % INH.", "value": 54, "unit": "%"},
      {"measurement": "pKi", "setting": "[3]; read-out: K1", "value": 5.32}
    ]}
  ]
}
